In patent publication US8957069B2, “Benzofuran derivatives” (Takeda Pharmaceutical Company Limited, priority 2009, dated 2015):

Tested on: rat mixed glial culture
Assay: Activity of promoting neuronal neogenesis in rat mixed glial culture
Assay type: cell-based
Conditions: compound 1 μM + rhIGF-1 100 ng/ml, three days; anti-class III beta-tubulin, absorbance at 450 nm; control (rhIGF-1 only) = 100%
Method: From a three-day old SD rat, hippocampus and cerebral cortex were removed. By using a kit of dispersion liquid for neuronal cells (MB-X9901, manufactured by SUMITOMO BAKELITE CO., LTD.), cell suspension was prepared and then seeded on a 96-well plate coated with collagen Type I (4860-010, manufactured by Asahi Techno Glass Co., Ltd.) to 10^5 cells/well. Under the condition of 37° C. and 5% CO2, the cells were cultured for four days in a growth medium (D-MEM/F12 with 10% FBS, comprising PS).
After culturing, the medium was exchanged with a medium for differentiation (D-MEM/F12, comprising PS), added with rhIGF-1 (R&D Systems, 291-G1-250, final concentration of 100 ng/ml) and the compound to 1 μM, followed by further culture for three days. […] By using the plate reader (Labsystems Multiskan BICHROMATIC), absorbance at 450 nm was measured.
The absorbance for the case in which no compound is added (i.e., control, rhIGF-1 only) was 100%, and the increase ratio of the absorbance for the compound addition (i.e., compound+rhIGF-1) compared to the control was obtained as % control. Activity of the each compound for promoting neuronal differentiation that is measured according to the above method is summarized in Table 9 and Table 10.

COc1ccc(N2CCN(c3c(C)c(C)c4c(c3C)CC(C)(CO)O4)CC2)cc1 (single isomer, unassigned; (+)) [Example 144, (+)-{5-[4-(4-methoxyphenyl)piperazin-1-yl]-2,4,6,7-tetramethyl-2,3-dihydro-1-benzofuran-2-yl}methanol] was tested, and the “Increase Ratio of the Absorbance (% control)” value was over 500 % control.
